Results published in patent US20170363637A1, “Method and Kit for Determining Risk of Preterm Birth and/or Birth of Low-Birth-Weight Baby” (HIROSHIMA UNIVERSITY, priority 2014, published 2017).

How the values were obtained:
[1] = test system: C57Bl/6J mice infected with P.g. w83 strain; experiment: Effect of Gal-3 inhibitor on preterm birth induced by dental infection of P.g. (gestational period); type: in vivo, mouse; settings: 5 mg/kg N-Lac intraperitoneally at gestational ages of 12, 15 and 18 days
Method: Effect of a Gal-3 inhibitor, N-acetyllactosamine (N-Lac), on preterm birth induced by dental infection of P.g. was studied.
(§1) 8-wks-old female C57Bl/6J mice were infected with P.g. w83 strain via the pulp chambers of the first molars. After periapical granuloma, which serves as a persistent source of P.g., was established at 6wks post-infection, mating was started (P.g. group). A half of the mice in P.g. group was intraperitoneally administered with 5 mg/kg of N-Lac (Sigma-Aldrich) at the gestational ages of 12, 15 and 18 days (P.g./N-Lac group). Healthy pregnant mice without P.g. infection were used as a control (NC group). The gestational period was compared among the groups. At the gestational age of 17 days the placental tissues were harvested, and inflammatory cell infiltration (MΦ, neutrophils), damage of endothelial cells (CD31), and immunolocalization of factors promoting delivery (TNF-α, COX-2, and Gal-3) were compared among the groups.

HTR-8 cells [2] = experiment: Effect of Gal-3 inhibitor on human placenta cell line stimulated with P.g.-LPS (Western-blotting); type: cell-based
Method: Human trophoblast cell line—HTR-8/Svneo cells were kindly gifted from Prof. Charles H. Graham (Queen's University, Canada). The cells were grown in RPMI 1640 media (Nissui Pharmaceutical Co., Tokyo, Japan) supplemented with 10% heat-inactivated FBS (Invitrogen) and 100 Uml penicillin-streptomycin (Gibco, Tokyo, Japan). For the experiments, cells were seeded at a density of 5×10^5 cells in 35 mm culture dishes. The cells were maintained at 37° C. in a normal atmosphere containing 5% CO2. The cells were stimulated by 1 μg/ml of P.g.-LPS (Invivogen, SanDiego, Calif., USA), expression of Gal-3 mRNA and Gal-3 levels in the culture media were measured at one, two, or three days after the stimulation.
HTR-8 cells were stimulated with P.g.-LPS (1 μg/ml) and N-Lac (10^−9 M and 10^−8 M), and the expression levels of Gal-3, TNF-α, COX-2 and IL-8 in the culture supernatants were measured by RT-PCR and Western-blotting.

[3] = test system: placental tissues of P.g.-infected mice; experiment: Histological and immunohistochemical observation of placental tissues at gestational age of 17 days; type: in vivo, mouse; settings: placenta at gestational age of 17 days; P.g./N-Lac group vs P.g. group
Method: Immunohistochemical staining was performed in a conventional manner. As PMNL markers, MCA771GA (rat anti-neutrophils antibody, purchased from AbD Serotec (Raleigh, N.C., USA), 1:5000), rabbit monoclonal anti-COX-2 antibody (purchased from Cell Signaling Technology (Danvers, Mass., USA), 1:100), goat anti-TNF-α antibody (purchased from Santa Cruz Biotechnology, Inc. (Santa Cruz, Calif., USA), 1:50), and rat anti-galectin-3 antibody (purchased from BioLegend, Inc (San Diego, Calif., USA), 1:500) were used. A high polymer method (Histofine Max-PO; Nichirei Biosciences) was used for immunohistochemical staining of the markers. Specificity of the antibodies was ascertained by substituting PBS/serum for each antibody.
as §1, with “At the gestational age of 17 days the placental tissues were harvested, and inflammatory cell infiltration (MΦ, neutrophils), damage of endothelial cells (CD31), and immunolocalization of factors promoting delivery (TNF-α, COX-2, and Gal-3) were compared among the groups.” left out

HTR-8 cells [4] = experiment: TNF-α stimulation of HTR-8 cells, Gal-3 production; type: cell-based, human; settings: 10 ng/ml rhTNF-α; 2 days post-stimulation; P<0.01
Method: Gal-3 protein levels in the cell culture supernatants were analyzed by Human Galectin-3 Immunoassay (R&D Systems) as the manufacturer recommended. Statistical differences among the experimental groups were evaluated by analysis of T test using GraphPad Prism (version 6.0c, CA, USA) with the level of significance set at P<0.01**.
Effect of TNF-α, which is produced by P.g.-LPS stimulation, on Gal-3 production was studied.
Recombinant human TNF-α (rhTNF-α, purchased from R&D Systems (Minneapolis, Minn., USA)) was applied at 10 ng/ml to HTR-8 cells for 1, 2 or 3 days and the Gal-3 protein levels in the culture media were measured. The cell culture and measurement of the Gal-3 protein levels were performed in the same manner as in Example 6.

[5] = P.g.-LPS 1 μg/ml and N-Lac (10^−9 M and 10^−8 M)

Compound	preterm birth induced by P.g. ([1]; p<0.05)	average gestational period ([1]; P.g./N-Lac group, NC 20, P.g. 18.3) [days]	Gal-3 expression upregulated by the P.g.-LPS stimulation (HTR-8 cells [2]; [5])	TNF-α expression upregulated by the P.g.-LPS stimulation (HTR-8 cells [2]; [5])	expression of TNF-α (HTR-8 cells [2]; incubation with N-Lac (10^−9 M and 10^−8 M))	decrease of CD31 and expression of TNF-α, COX-2 and Gal-3 in placenta [3]	denature and detachment of the amnion membrane, denature and necrosis of the placenta, increase of inflammatory cell infiltration [3]	Gal-3 protein level in culture media (HTR-8 cells [4])
CC(=O)N[C@H]1C(O)O[C@H](CO)[C@@H](O[C@@H]2O[C@H](CO)[C@H](O)[C@H](O)[C@H]2O)[C@@H]1O (some centres unmarked) [N-Lac, N-acetyllactosamine]	significantly suppressed preterm birth	20.7	remarkably reduced	remarkably reduced	suppressed	improved	not observed	–
TNF-α	–	–	–	–	–	–	–	significant increased
